Measurements taken from patent publication US20060094071A1 (priority 2002, published 2006).
Where no end group is shown, it is not given here. The star is where a group is joined. Propionyl = CCC(=O)*

Tests used:
PrP^Sc [1] = molecular target: T1, PrP^Sc (Bos taurus, UniProt P10279); format: binding, cattle
PrP^Sc [2] = molecular target: T1, PrP^Sc; format: binding, cattle; settings: pH 3
PrP^Sc [3] = system: PrP^Sc

Substance	PrP^Sc binding efficiency (relative) (PrP^Sc [1])	Elution efficiency (PrP^Sc [2])	Extinction at 450 nm, BSE-positive versus BSE-negative animals (PrP^Sc [3])
Leu-Pro-Phe-Phe-Asp (LPFFD; beta-sheet binding peptide) [Peptide 3]	46.6%	–	–
Arg-Val-Val-Ile-Ala [Peptide 1]	54.7%	–	–
Propionyl-IIGL [Peptide 4]	55.1%	–	–
Lys-Leu-Val-Phe-Phe [Peptide 2]	100.0%	remained almost completely bound	significantly (t-test) raised
Propionyl-RIIGL [Peptide 5]	58.1%	–	–
Propionyl-DArg-DArg-DA1a-DPhe-DPhe-DVal-amide [Peptide 7]	76.5%	–	–
Gly-Val-Val-Ile-Ala [Peptide 6]	64.5%	–	–
